Results from patent publication US20070037752A1, “Novel alanyl-amino peptidase inhibitors for functionally influencing different cells and treating immunological, inflammatory, neuronal, and other diseases” (priority 2003, published 2007).

Target: alanyl aminopeptidases (APN) (Homo sapiens, UniProt P15144)
Assay: Inhibition of alanyl aminopeptidase enzymatic activity, fluorogenic substrate (Ala)2-rhodamine 110
Type: biochemical
Details: Table 9, starred values = ID50; read-out: ID50 APN (values marked with *)
Protocol: The inhibition characteristics measured are referred to as IC-50 values or ID50 values (the latter marked with “*”) for said enzyme. The enzymatic activity was determined by means of the fluorogenic substrate/product (Ala)2-rhodamine 110.

Sequence of alanyl aminopeptidases (APN) (P15144 whole entry, species assumed): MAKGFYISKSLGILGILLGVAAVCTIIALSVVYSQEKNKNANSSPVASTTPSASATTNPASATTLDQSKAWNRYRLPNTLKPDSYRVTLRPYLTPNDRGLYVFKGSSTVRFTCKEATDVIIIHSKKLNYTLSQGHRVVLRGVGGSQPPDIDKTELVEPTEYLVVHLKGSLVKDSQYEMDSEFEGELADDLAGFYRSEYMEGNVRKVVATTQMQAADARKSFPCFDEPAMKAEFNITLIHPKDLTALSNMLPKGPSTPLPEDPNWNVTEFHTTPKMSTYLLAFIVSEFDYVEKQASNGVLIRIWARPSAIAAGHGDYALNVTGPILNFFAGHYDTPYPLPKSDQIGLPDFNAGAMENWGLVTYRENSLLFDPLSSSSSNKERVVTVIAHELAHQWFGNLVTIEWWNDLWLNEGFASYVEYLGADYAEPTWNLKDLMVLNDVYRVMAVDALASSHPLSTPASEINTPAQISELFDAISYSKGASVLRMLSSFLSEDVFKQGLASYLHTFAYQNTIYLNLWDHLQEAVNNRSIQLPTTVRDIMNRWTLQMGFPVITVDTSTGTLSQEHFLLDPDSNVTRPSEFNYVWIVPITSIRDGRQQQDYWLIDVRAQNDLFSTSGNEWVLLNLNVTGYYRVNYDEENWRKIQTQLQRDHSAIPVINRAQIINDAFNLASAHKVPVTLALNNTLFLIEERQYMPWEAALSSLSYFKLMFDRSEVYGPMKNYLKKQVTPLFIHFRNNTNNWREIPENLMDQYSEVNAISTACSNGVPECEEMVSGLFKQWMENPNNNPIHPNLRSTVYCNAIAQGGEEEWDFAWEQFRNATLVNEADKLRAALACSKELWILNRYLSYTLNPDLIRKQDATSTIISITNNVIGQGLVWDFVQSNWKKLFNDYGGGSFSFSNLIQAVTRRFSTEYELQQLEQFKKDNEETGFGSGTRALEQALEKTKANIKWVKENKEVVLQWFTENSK

IC50	Structure (SMILES)
10.2 µM	CCCCOC(=O)c1cccc(-c2ccc(/C=C3\C(=O)N(CCO)C(=O)C(C#N)=C3C)o2)c1 [A9.021]

Same assay, conditions: Table 9, unstarred values; read-out: IC50APN

IC50	Structure (SMILES)
6.3 µM	COC(=O)c1cccc(-c2ccc(/C=C3\C(=O)N(CCO)C(=O)C(C#N)=C3C)o2)c1 [A9.010]
6.7 µM	CCc1cccc(CC)c1NC(=S)N/N=C1\C(=O)N(CN2CC(C)CC(C)C2)c2ccccc21 (stereo not shown) [A9.011]
5.9 µM	COC(=O)C1=C(N)N2C(=O)CSC2=C(C(=O)OC(C)C)C1 [A9.012]
7.3 µM	CCOC(=O)N1CCc2c(sc(NC(=O)c3ccc(F)cc3)c2C(=O)Nc2ccc(Br)cc2)C1 [A9.013]
7.3 µM	CC(=O)NC1OCC(O)C(O)C1O (stereo not shown) [A9.014]
8.1 µM	COc1ccc(Cl)cc1C(=O)N/C(=C/c1ccco1)C(=O)N1CC2CC(C1)c1cccc(=O)n1C2 (stereo not shown) [A9.015]
8.9 µM	c1coc(-c2nc3cc4ccccc4cc3nc2-c2ccco2)c1 [A9.016]
8.9 µM	N#Cc1cc(N2CC3CC(C2)c2cccc(=O)n2C3)c([N+](=O)[O-])cc1C#N (stereo not shown) [A9.017]
8.9 µM	COc1ccc2c(C)nc(Nc3nc(C)c4ccccc4c(=O)n3)nc2c1 [A9.018]
9.7 µM	CC1=C(C#N)C(=O)N(CCCO)C(=O)/C1=C\c1ccc(-c2cc(C)c(C)cc2[N+](=O)[O-])o1 [A9.019]
9.8 µM	Cc1ccc(/C=N\NC(=O)c2cnccn2)o1 [A9.020]
10.6 µM	O=C(N/C(=C\c1ccco1)C(=O)N1CCCCC1)c1ccco1 [A9.022]
11 µM	Cc1ccc(C(=O)N/C(=C\c2ccco2)C(=O)N2CC3CC(C2)c2cccc(=O)n2C3)cc1 (stereo not shown) [A9.023]
11.8 µM	CN(C)CCCN1CCN(c2nc(N(C)CC(=O)O)c3ncn(Cc4ccc([N+](=O)[O-])cc4)c3n2)CC1 [A9.024]
11.7 µM	Cc1[nH]c2ccccc2c1C(c1cc(Cl)ccc1O)N1CCOCC1 (stereo not shown) [A9.025]
11.8 µM	Cc1ccc(C(=O)N/C(=C\c2ccco2)C(=O)N2CC3CC(C2)c2cccc(=O)n2C3)cc1C (stereo not shown) [A9.026]
13.1 µM	CC(C)COc1ccc(C(=O)N/C(=C\c2ccco2)C(=O)N2CCOCC2)cc1 [A9.027]
13.2 µM	O=C(O)c1cc2nc(-c3ccco3)cc(C(F)(F)Cl)n2n1 [A9.028]

IC50	Structure (SMILES)
13.5 µM	O=C(N/C(=C\c1ccco1)C(=O)N1CCOCC1)c1ccco1 [A9.029]
13.7 µM	O=C1C2=[N+]([O-])C3CCCCC3[N+]([O-])=C2c2ccccc21 (stereo not shown) [A9.030]
13.4 µM	N/C(=N/OS(=O)(=O)c1ccc(C(F)(F)F)cc1)C1CSCCS1 (stereo not shown) [A9.031]
14.1 µM	O=C(CCCCCN1C(=O)c2cccc3cccc(c23)C1=O)NO [A9.032]
14.3 µM	COc1nncc(-c2cnnc(SC)n2)n1 [A9.033]
14.3 µM	Clc1ccc(-n2cc3c(-c4ccco4)nnc(-c4nc5ccccc5s4)c3n2)cc1 [A9.034]
14.6 µM	O=c1[nH]c(/C=C/c2ccco2)nc2ccccc12 [A9.035]
15.2 µM	COC(=O)c1cc(-c2ccc(/C=C3\C(=O)N(CCCO)C(=O)C(C#N)=C3C)o2)ccc1Cl [A9.036]
16 µM	CC1=C(C#N)C(=O)N(CCCO)C(=O)/C1=C\c1ccc(-c2ccc(Br)cc2)o1 [A9.037]
17.1 µM	O=C(O)C1N=NC(c2ccc(F)cc2)=CN1O (stereo not shown) [A9.038]
18.1 µM	C=CCOC(=O)c1cc(-c2ccc(/C=C3/C(=O)N(CCCO)C(=O)C(C#N)=C3C)o2)ccc1Cl [A9.040]
18.2 µM	Cc1cc(=O)[nH]c(N/N=C/c2ccco2)n1 [A9.041]
18.2 µM	CC(=O)c1cccc(-c2ccc(/C=C3/C(=O)N(CCCO)C(=O)C(C#N)=C3C)o2)c1 [A9.042]
19 µM	O=C(N/C(=C\c1ccco1)C(=O)N1CCCC(CO)C1)c1ccccc1 (stereo not shown) [A9.043]
19.1 µM	O=C(Cc1ccc([N+](=O)[O-])cc1)N1CCOCC1 [A9.044]
19.2 µM	CO/N=C(\c1nonc1N)N1CCN(c2ccc([N+](=O)[O-])cc2Cl)CC1 [A9.045]
19.2 µM	CN1C/C(=C/c2ccco2)C(=O)/C(=C/c2ccco2)C1 [A9.046]
19.9 µM	CC1CCCCN1S(=O)(=O)c1ccc(NC(=O)/C=C/c2ccco2)cc1 (stereo not shown) [A9.047]
